Results as given in article PMC9928118, “Funneling modulatory peptide design with generative models: Discovery and characterization of disruptors of calcineurin protein-protein interactions” (PLOS Computational Biology, 2023).

Tested on: GST-tagged Cn
Experiment: PEPperPRINT peptide microarray binding assay with GST-tagged Cn
Outline: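 Qualitative binding: peptides printed on a PEPperPRINT microarray were incubated overnight at 4 °C with 1 mg/ml GST-tagged Cn, then detected with Alexa-Fluor 647 anti-GST antibody. Log fluorescence was baseline-corrected, averaged over duplicate spots, Z-normalized and averaged across five repeats.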

[1] = max over the spots listed under Location on chip
[2] = mean over the spots listed under Location on chip
[3] = GST-tagged Cn, max over the spots named in Location on chip
[4] = GST-tagged Cn, mean over the spots named in Location on chip
[5] = max over the chip locations listed for the peptide (two spots)
[6] = mean over the chip locations listed for the peptide (two spots)
[7] = GST-tagged Cn, max over the spots on the chip (two locations)
[8] = GST-tagged Cn, mean over the spots on the chip (two locations)
[9] = GST-tagged Cn, max over the chip locations
[10] = GST-tagged Cn, mean over the chip locations
[11] = GST-tagged Cn, max over the chip spots listed under Location on chip
[12] = GST-tagged Cn, mean over the chip spots listed under Location on chip

GYDIDPAISFDSDLML [Seqshuffled_9502]
Chip Fluorescence (max) [1]: 3.174 | Chip Fluorescence (mean) [2]: 2.023

MLSIRPSARLKIPQHR [SeqRBM_1889]
Chip Fluorescence (max) [3]: 1.553 | Chip Fluorescence (mean) [4]: -0.6579

ADEANPEITITPPELP [SeqRBMlowT_372]
Chip Fluorescence (max) [5]: 6.273 | Chip Fluorescence (mean) [6]: 1.325

NKLKIPHQLSQPINDH [SeqRBM_2163]
Chip Fluorescence (max) [1]: 2.778 | Chip Fluorescence (mean) [2]: 0.1403

TFWTNPQYKITLEEED [SeqRBMlowT_3204]
Chip Fluorescence (max) [1]: 3.2 | Chip Fluorescence (mean) [2]: 1.112

PLGTQPGIVVHVCELN [SeqRBMlowT_356]
Chip Fluorescence (max) [5]: 4.334 | Chip Fluorescence (mean) [6]: 3.231

TFWTNPQYRIKLEEAD [SeqRBMlowT_241]
Chip Fluorescence (max) [1]: 3.006 | Chip Fluorescence (mean) [2]: 0.9242

KKMSPPCISVDPPDEL [SeqCACNA1H_Nothobranchius_rachovii]
Chip Fluorescence (max) [7]: 1.26 | Chip Fluorescence (mean) [8]: -0.004401

STSSLPTFSFSSPASS [SeqRBMlowT_1605]
Chip Fluorescence (max) [9]: 0.1343 | Chip Fluorescence (mean) [10]: -0.9005

HSKFIPKLSLQSPVHH [SeqRBMlowT_1695]
Chip Fluorescence (max) [7]: 1.29 | Chip Fluorescence (mean) [8]: -0.2065

TFWTNPQYRITLEELD [SeqRBMlowT_2291]
Chip Fluorescence (max) [5]: 5.53 | Chip Fluorescence (mean) [6]: 0.9297

ADEAIPEIVISKPEEP [SeqRBMlowT_2534]
Chip Fluorescence (max) [5]: 18.5398 | Chip Fluorescence (mean) [6]: 3.2425

HSKSIPKISIQSPVHH [SeqRBMlowT_863]
Chip Fluorescence (max) [9]: -0.2725 | Chip Fluorescence (mean) [10]: -0.8171

RQPGQALLTLRGHSKS [SeqRBMlowT_7741]
Chip Fluorescence (max) [1]: 2.813 | Chip Fluorescence (mean) [2]: 0.6175

DVSDSPDVDLKIPQAR [SeqRBM_5022]
Chip Fluorescence (max) [11]: 0.6546 | Chip Fluorescence (mean) [12]: -0.1589

SQMAAPAINIDFAPTN [SeqRBMlowT_314]
Chip Fluorescence (max) [7]: 0.998 | Chip Fluorescence (mean) [8]: -0.1818

TFWTNPQFKVKLEEPD [SeqRBMlowT_221]
Chip Fluorescence (max) [11]: 0.5686 | Chip Fluorescence (mean) [12]: -0.7828

TFWTNPQFRITLDSPD [SeqRBMlowT_5998]
Chip Fluorescence (max) [1]: 2.88 | Chip Fluorescence (mean) [2]: 0.5672

AYPGTYYGQDGSHKKQ [SeqRBM_820]
Chip Fluorescence (max) [1]: 2.763 | Chip Fluorescence (mean) [2]: 0.3608

KAYMCSFMRFIEGGRR [SeqRBMlowT_3379]
Chip Fluorescence (max) [1]: 2.957 | Chip Fluorescence (mean) [2]: -0.3215

RNPGQALLTLRGHSAS [SeqRBMlowT_5835]
Chip Fluorescence (max) [11]: 0.6321 | Chip Fluorescence (mean) [12]: -0.2233

RNPGQALLTLRGHKKQ [SeqRBMlowT_5826]
Chip Fluorescence (max) [7]: 1.2153 | Chip Fluorescence (mean) [8]: 0.1411

KAYMCPSMQFIDGGRR [SeqRBMlowT_9264]
Chip Fluorescence (max) [7]: 1.2267 | Chip Fluorescence (mean) [8]: -0.003433

HVSSSPRITITPTQHR [SeqRBMlowT_743]
Chip Fluorescence (max) [1]: 2.778 | Chip Fluorescence (mean) [2]: 0.8662

KAYMNPYVQFIDGGRR [SeqRBMlowT_9255]
Chip Fluorescence (max) [7]: 1.252 | Chip Fluorescence (mean) [8]: -0.2059

QGIYQDLGGINNFSIS [SeqCRZ1_Pseudogymnoascus_sp]
Chip Fluorescence (max) [9]: -0.4093 | Chip Fluorescence (mean) [10]: -1.098

LMVSPPEITISPAELH [SeqRBM_5585]
Chip Fluorescence (max) [1]: 3.353 | Chip Fluorescence (mean) [2]: 0.761

NVPKGIRFRRTYLAIP [Seqshuffled_5577]
Chip Fluorescence (max) [11]: 0.7584 | Chip Fluorescence (mean) [12]: -1.743

HSKLIPKVSIQSPVHH [SeqRBMlowT_2323]
Chip Fluorescence (max) [9]: 0.1516 | Chip Fluorescence (mean) [10]: -0.9286

TFNTNPQYTIQVVWPD [SeqRBM_7110]
Chip Fluorescence (max) [9]: -0.1833 | Chip Fluorescence (mean) [10]: -1.179

TFWSNPQYFVTLLESD [SeqRBM_6656]
Chip Fluorescence (max) [1]: 3.032 | Chip Fluorescence (mean) [2]: 1.049

TFWTNPQYTITLEEVD [SeqRBMlowT_678]
Chip Fluorescence (max) [1]: 2.849 | Chip Fluorescence (mean) [2]: 0.5944

TFWSNPQFRITLEEPD [SeqRBMlowT_9100]
Chip Fluorescence (max) [11]: 0.5324 | Chip Fluorescence (mean) [12]: -0.206

HVSSSPDIALTPEQHD [SeqRBM_7666]
Chip Fluorescence (max) [9]: 0.08725 | Chip Fluorescence (mean) [10]: -0.9315

STSSLPTFSFSSPLPS [SeqRBMlowT_3929]
Chip Fluorescence (max) [3]: 1.5 | Chip Fluorescence (mean) [4]: -1.084

LDEAIPEIVISPPETP [SeqRBMlowT_4410]
Chip Fluorescence (max) [5]: 9.285 | Chip Fluorescence (mean) [6]: 1.035

PKMAPPAINIDFAPTN [SeqRBMlowT_1805]
Chip Fluorescence (max) [1]: 2.636 | Chip Fluorescence (mean) [2]: -0.01431

ASDDIPTVVIHPPEED [SeqSLC4A7_Pan_troglodytes]
Chip Fluorescence (max) [1]: 2.587 | Chip Fluorescence (mean) [2]: -0.184

LKDEFPEVRLNIISSL [SeqRBMlowT_1023]
Chip Fluorescence (max) [1]: 2.696 | Chip Fluorescence (mean) [2]: 0.6595

TFWTNPQYRLKVTDPD [SeqRBMlowT_5581]
Chip Fluorescence (max) [1]: 3.3 | Chip Fluorescence (mean) [2]: 1.547

TFWTNPQFKITLEELD [SeqRBMlowT_5669]
Chip Fluorescence (max) [1]: 2.6605 | Chip Fluorescence (mean) [2]: 0.5654

NIIKTLTAVARYCQHF [Seqrandom_9968]
Chip Fluorescence (max) [3]: 1.398 | Chip Fluorescence (mean) [4]: -0.3065

TFWMNPQFKINLEEED [SeqCAPN11_Salmo_salar]
Chip Fluorescence (max) [1]: 3.077 | Chip Fluorescence (mean) [2]: 0.4499

LVWDNGSYTGRTIKAP [Seqshuffled_9818]
Chip Fluorescence (max) [11]: 0.8809 | Chip Fluorescence (mean) [12]: -0.1421

RQPGQALLTLRGHKKQ [SeqRBMlowT_5816]
Chip Fluorescence (max) [3]: 1.5016 | Chip Fluorescence (mean) [4]: 0.5912

HVSSSSDITITPTQHR [SeqRBMlowT_2715]
Chip Fluorescence (max) [7]: 1.1425 | Chip Fluorescence (mean) [8]: -0.2145

TFWTNPQFRVKLEDPD [SeqRBMlowT_223]
Chip Fluorescence (max) [11]: 0.479 | Chip Fluorescence (mean) [12]: -1.105

HVSSSPDITLTPTQHR [SeqRBMlowT_782]
Chip Fluorescence (max) [9]: -0.2367 | Chip Fluorescence (mean) [10]: -0.7632

RAYINPFMQFIDGGRF [SeqRBMlowT_3663]
Chip Fluorescence (max) [11]: 0.6841 | Chip Fluorescence (mean) [12]: -0.1666

GTLYDNVLGIESFSLS [SeqRBMlowT_4817]
Chip Fluorescence (max) [5]: 3.464 | Chip Fluorescence (mean) [6]: 0.964

SPSIVANADLVVPYSE [SeqRBM_1237]
Chip Fluorescence (max) [11]: 0.5354 | Chip Fluorescence (mean) [12]: -0.2316

SLDEEPGISINEKPVG [Seqshuffled_9948]
Chip Fluorescence (max) [3]: 1.684 | Chip Fluorescence (mean) [4]: 0.5765

GSPPTPSRSGKPPKPL [SeqRBM_2495]
Chip Fluorescence (max) [1]: 3.396 | Chip Fluorescence (mean) [2]: 0.6955

ESSTTPGVVVHICEDD [SeqRBM_7485]
Chip Fluorescence (max) [5]: 8.839 | Chip Fluorescence (mean) [6]: 1.544

RNPGQALLTLRGHKAQ [SeqRBMlowT_5824]
Chip Fluorescence (max) [9]: -0.7814 | Chip Fluorescence (mean) [10]: -1.225

KKMAPPCINIDPAPEN [SeqRBMlowT_2431]
Chip Fluorescence (max) [5]: 3.662 | Chip Fluorescence (mean) [6]: 0.8549

TFWTNPQYRVKVTEPD [SeqRBMlowT_7349]
Chip Fluorescence (max) [7]: 1.274 | Chip Fluorescence (mean) [8]: 0.2599

GTDTTPSVVVHVCEDD [SeqRBMlowT_1211]
Chip Fluorescence (max) [11]: 0.8657 | Chip Fluorescence (mean) [12]: -0.2753

TFWTNPQFVVSLPEPD [SeqRBMlowT_3270]
Chip Fluorescence (max) [11]: 0.9379 | Chip Fluorescence (mean) [12]: -0.001001

TFWTNPQYRLNIIDPD [SeqRBMlowT_94]
Chip Fluorescence (max) [7]: 1.251 | Chip Fluorescence (mean) [8]: -0.6992

QGLYENVLGMEAFSVS [SeqRBM_7629]
Chip Fluorescence (max) [11]: 0.8552 | Chip Fluorescence (mean) [12]: 0.1691

TFWTNPQYRMVLDEDD [SeqRBM_7411]
Chip Fluorescence (max) [5]: 5.3741 | Chip Fluorescence (mean) [6]: 1.404

TFWTNPQYVITVTDPD [SeqRBMlowT_3207]
Chip Fluorescence (max) [11]: 0.3855 | Chip Fluorescence (mean) [12]: -0.6772

PGLYDNALGMESFTLS [SeqRBMlowT_2805]
Chip Fluorescence (max) [7]: 1.201 | Chip Fluorescence (mean) [8]: 0.8541
